Like-named read-outs stand apart in the source and are kept apart here. Where a SMILES comes first, the peptide text is derived from it. Where no end group is shown, it is not given here. [ ]: non-standard residue; d: D form. d1Nal = N[C@H](Cc1cccc2ccccc12)C(=O)O; Cha = N[C@@H](CC1CCCCC1)C(=O)O; Phg = N[C@H](C(=O)O)c1ccccc1; Nva = CCC[C@H](N)C(=O)O
Legend:
ghrelin receptor [1] = target: T1, ghrelin receptor (Homo sapiens, UniProt Q92847); assay: Inositol trisphosphate turnover assay in COS-7 cells transfected with the ghrelin receptor; format: cell-based; design: expressed in transfected cells; settings: for Emax ± SEM: efficacy; for EC50: mean ± SEM of n experiments; for Emax: COS-7
Target sequence in this assay (Q92847 whole entry): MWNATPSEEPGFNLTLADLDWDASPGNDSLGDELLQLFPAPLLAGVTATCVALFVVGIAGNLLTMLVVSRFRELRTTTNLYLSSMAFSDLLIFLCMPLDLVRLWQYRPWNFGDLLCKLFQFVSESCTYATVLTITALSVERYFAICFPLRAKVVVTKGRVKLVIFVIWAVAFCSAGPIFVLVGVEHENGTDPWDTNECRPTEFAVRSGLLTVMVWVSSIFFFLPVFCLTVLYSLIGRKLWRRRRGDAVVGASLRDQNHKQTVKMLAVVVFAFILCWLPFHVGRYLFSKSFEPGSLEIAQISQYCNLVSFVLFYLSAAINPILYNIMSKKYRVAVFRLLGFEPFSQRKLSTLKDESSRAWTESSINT
Procedure: COS-7 cells were grown in a humidified atmosphere at 37° C. and 5% CO2 in Dulbecco's modified Eagle's medium with higher glucose supplemented with 10% (v/v) FCS and 1% (v/v) penicillin/streptomycin. COS-7 cells were seeded out in 24-well plates (80.000-100.000 cells/well) in DMEM with 10% FCS. […] Each well was treated with 0.3 μg DNA and 0.9 μl metafectene.
The day after transfection, or the day after seeding for stable cells, cells were incubated with myo-[2-^3H]-inositol (2 μCi/ml) for 18 h and washed with DMEM/LiCl. Stimulation was then carried out with seven to nine different peptide concentrations in DMEM containing 10 mM LiCl, for 2 h, in duplicates. Stimulation was stopped by aspirating the medium and subsequently, cells were lysed with 150 μl of 0.1M NaOH for 5 min at RT. 50 μl of 0.2M HCOOH were added and the solution was diluted using 1 ml dilution buffer. […] Obtained data was analyzed with GraphPad Prism 3.0 (GraphPad Software). Therefore, dpm values are assigned to the corresponding peptide concentrations. Non-linear regression was used to obtain sigmoidal curves. For better comparability, dpm values were normalized to the constitutive activity. Constitutive activity of 100% represents the basal activity, the activity of the receptor without the influence of peptides. Emax is the efficacy of the peptide and represents the difference between constitutive activity and activity at maximal effect of the peptide. EC50 is the peptide concentration at half-maximal effect.

rats = assay: ICV administration to rats, food intake; format: in vivo; settings: 1 nmol/rat, n=6, vs vehicle 0.9% saline with DMSO
From the text: For in vivo studies, peptide 3 was delivered intracerebroventricularly. The rats were stereotaxically implanted with a stainless steel cannula (Holm Finmekanik AS, Copenhagen, Denmark) aimed at the right lateral ventricle 1 mm caudal and 1.5 mm lateral to bregma and 4 mm ventral to cranium externa. Rats were left to recover in the metabolic cages (MANI Feed Win, Ellegaard Systems) for adaptation for at least 5 days, only interrupted by daily handling and body weight measurements. With these cages we could accurately measure the food and water intake of rats for up to 48 hours. The powdered diet used eliminated food hoarding and spill. Cannula placement was confirmed by measuring the drinking response to angiotensin injection (100 nmol/rat). Administration of peptide was done with 1 nmol/rat (n=6). As a negative control, a vehicle solution of 0.9% saline with DMSO (n=7) was used.

ghrelin receptor [2] = target: T1, ghrelin receptor; settings: background, cited from earlier work
Target sequence in this assay (Q92847 whole entry, species assumed): as the sequence (Q92847 whole entry) above

ghrelin receptor [3] = target: T1, ghrelin receptor; settings: background; cited from earlier work
Target sequence in this assay (Q92847 whole entry, species assumed): as the sequence (Q92847 whole entry) above

[4] = inverse agonistic activity, difference to constitutive activity (Table 2)
[5] = inverse agonistic activity, analogs KxFwLL-NH2 (Table 2)
[6] = shift in efficacy compared to KwFwLL-NH2, inverse agonistic activity
[7] = shift in potency compared to KwFwLL-NH2, inverse agonistic activity
[8] = inverse agonistic activity, read-out: efficacy (Emax)
[9] = inverse agonistic activity, analogs K-(D-1-Nal)-xwLL-NH2 (Table 5)
[10] = shift of efficacy compared to K-(D-1-Nal)-FwLL-NH2, inverse agonistic activity
[11] = shift of potency compared to K-(D-1-Nal)-FwLL-NH2, inverse agonistic activity
[12] = agonistic activity, read-out: Emax
[13] = agonistic activity, ghrelin and analogs KwFxLL-NH2 (Table 3)
[14] = agonistic activity, difference to constitutive activity (Table 3)
[15] = shift in efficacy compared to ghrelin, agonistic activity
[16] = shift in potency compared to ghrelin, agonistic activity

With `CC(C)C[C@H](NC(=O)[C@H](CC(C)C)NC(=O)[C@H](NC(=O)[C@H](Cc1ccccc1)NC(=O)[C@@H](Cc1c[nH]c2ccccc12)NC(=O)[C@@H](N)CCCCN)C(c1ccccc1)c1ccccc1)C(N)=O` [Peptide 16, KwF-(D-Dip)-LL-NH2] the “activity at the ghrelin receptor (in words)” value (“activity … (in words)” for short) (ghrelin receptor [1]) was “no activity”.
In the case of `CC(C)C[C@H](NC(=O)[C@H](CC(C)C)NC(=O)[C@@H](Cc1c[nH]c2ccccc12)NC(=O)[C@H](Cc1ccccc1)NC(=O)[C@@H](Cc1ccc2ccccc2c1)NC(=O)[C@@H](N)CCCCN)C(N)=O` [Peptide 6, K-(D-2-Nal)-FwLL-NH2], the “activity … (in words)” value (ghrelin receptor [1]) is reported as “moderate activity”, the “Emax ± SEM” value (ghrelin receptor [1]; [4]) is reported as 66 ± 4 Δ % and the EC50 (ghrelin receptor [1]; [5]) is reported as 161 nM. For the same molecule, the “x-fold (Emax)” value (ghrelin receptor [1]; [6]) was 1.8 x-fold and the “x-fold (EC50)” value (ghrelin receptor [1]; [7]) was 3.54 x-fold.
With `CC(C)C[C@H](NC(=O)[C@H](CC(C)C)NC(=O)[C@@H](Cc1c[nH]c2ccccc12)NC(=O)[C@H](Cc1ccccc1)NC(=O)[C@@H](Cc1cccc2ccccc12)NC(=O)[C@@H](N)CCCCN)C(N)=O` [Peptide 3, K-(D-1-Nal)-FwLL-NH2] the “decrease of food intake compared to vehicle” value (rats) was roughly 5 fold.
With `CC(C)C[C@H](NC(=O)[C@H](CC(C)C)NC(=O)[C@@H](Cc1c[nH]c2ccccc12)NC(=O)[C@H](Cc1ccc(C(C)(C)C)cc1)NC(=O)[C@@H](Cc1cccc2ccccc12)NC(=O)[C@@H](N)CCCCN)C(N)=O` [Peptide 22, K-(D-1-Nal)-(L-tBf)-wLL-NH2] the Emax (ghrelin receptor [1]; [8]) was 84%, the “Emax ± SEM” value (ghrelin receptor [1]; [9]) was 84 ± 3 Δ % and the “x-fold (Emax)” value (ghrelin receptor [1]; [10]) was 1.3 x-fold. The “x-fold (EC50)” value (ghrelin receptor [1]; [11]) was 36.5 x-fold.
In the case of fQwFwLL-NH2, the “decrease of affinity in comparison to full-length modified substance P” value (ghrelin receptor [2]) is given as 5.3 fold and the “decrease of activity in comparison to full-length modified substance P” value (ghrelin receptor [3]) is given as 1.6 fold.
In the case of `CC(C)C[C@H](NC(=O)[C@H](CC(C)C)NC(=O)[C@@H](Cc1c[nH]c2ccccc12)NC(=O)[C@@H](NC(=O)[C@@H](Cc1cccc2ccccc12)NC(=O)[C@@H](N)CCCCN)c1ccccc1)C(N)=O` [Peptide 25, K-(D-1-Nal)-(L-Phg)-wLL-NH2] (H-K[d1Nal][Phg][dW]LL-NH2; N-terminus assumed), the “x-fold (EC50)” value (ghrelin receptor [1]; [11]) is reported as greater than 290 x-fold.
With `CC(C)C[C@H](NC(=O)[C@H](CC(C)C)NC(=O)[C@@H](Cc1c[nH]c2ccccc12)NC(=O)[C@H](Cc1ccccc1)NC(=O)[C@@H](Cc1ccc(-c2ccccc2)cc1)NC(=O)[C@@H](N)CCCCN)C(N)=O` [Peptide 8, K-(D-Bip)-FwLL-NH2] the “activity … (in words)” value (ghrelin receptor [1]) was “moderate activity”, the Emax (ghrelin receptor [1]; [8]) was greater than 80% and the “Emax ± SEM” value (ghrelin receptor [1]; [4]) was 82 ± 0 Δ %. For the same molecule, the “x-fold (Emax)” value (ghrelin receptor [1]; [6]) was 2.2 x-fold and the “x-fold (EC50)” value (ghrelin receptor [1]; [7]) was 4.03 x-fold.
For “wFwLL-NH2 ([dW]F[dW]LL-NH2; N-terminus assumed; SMILES CC(C)C[C@H](NC(=O)[C@H](CC(C)C)NC(=O)[C@@H](Cc1c[nH]c2ccccc12)NC(=O)[C@H](Cc1ccccc1)NC(=O)[C@H](N)Cc1c[nH]c2ccccc12)C(N)=O)”, the IC50 (ghrelin receptor [2]; reference 17, read-out: IC50 (receptor binding)) is given as 530 ± 230 nM.
In the case of `CC(C)C[C@H](NC(=O)[C@H](CC(C)C)NC(=O)[C@@H](Cc1c[nH]c2ccccc12)NC(=O)[C@H](CC1CCCCC1)NC(=O)[C@@H](Cc1cccc2ccccc12)NC(=O)[C@@H](N)CCCCN)C(N)=O` [Peptide 21, K-(D-1-Nal)-(Cha)-wLL-NH2] (H-K[d1Nal][Cha][dW]LL-NH2), the “Emax ± SEM” value (ghrelin receptor [1]; [9]) is reported as 85 ± 3 Δ %, the “x-fold (Emax)” value (ghrelin receptor [1]; [10]) is reported as 1.3 x-fold and the “x-fold (EC50)” value (ghrelin receptor [1]; [11]) is reported as 28.5 x-fold.
For `CC(C)C[C@H](NC(=O)[C@H](CC(C)C)NC(=O)[C@@H](Cc1c[nH]c2ccccc12)NC(=O)[C@H](Cc1ccccc1)NC(=O)[C@H](NC(=O)[C@@H](N)CCCCN)C(c1ccccc1)c1ccccc1)C(N)=O` [Peptide 5, K-(D-Dip)-FwLL-NH2], the Emax (ghrelin receptor [1]; [8]) was greater than 80%, the “Emax ± SEM” value (ghrelin receptor [1]; [4]) was 87 ± 2 Δ % and the “increase in activity compared with peptide 2 (KwFwLL-NH2)” value (ghrelin receptor [1]; inverse agonistic activity) was 3.5 fold. The “x-fold (Emax)” value (ghrelin receptor [1]; [6]) was 2.4 x-fold and the “x-fold (EC50)” value (ghrelin receptor [1]; [7]) was 0.29 x-fold.
With `CC(C)C[C@H](NC(=O)[C@H](CC(C)C)NC(=O)[C@@H](Cc1c[nH]c2ccccc12)NC(=O)[C@H](Cc1ccccc1)NC(=O)[C@@H](Cc1c[nH]c2ccccc12)NC(=O)[C@@H](N)CCCCN)C(N)=O` [Peptide 2, KwFwLL-NH2, reference compound] the Emax (ghrelin receptor [1]; [8]) was 37%, the “Emax ± SEM” value (ghrelin receptor [1]; [4]) was 37 ± 5 Δ % and the EC50 (ghrelin receptor [1]; [5]) was 45.6 nM. The “x-fold (Emax)” value (ghrelin receptor [1]; [6]) was 1 x-fold and the “x-fold (EC50)” value (ghrelin receptor [1]; [7]) was 1 x-fold.
With `CC(C)C[C@H](NC(=O)[C@H](CC(C)C)NC(=O)[C@@H](Cc1ccc2ccccc2c1)NC(=O)[C@H](Cc1ccccc1)NC(=O)[C@@H](Cc1c[nH]c2ccccc12)NC(=O)[C@@H](N)CCCCN)C(N)=O` [Peptide 13, KwF-(D-2-Nal)-LL-NH2] the Emax (ghrelin receptor [1]; [12]) was 156%, the EC50 (ghrelin receptor [1]; [13]) was 12.6 nM and the “percent of ghrelin efficacy” value (ghrelin receptor [1]; agonistic activity, relative to ghrelin) was 96%. For the same molecule, the “Emax ± SEM” value (ghrelin receptor [1]; [14]) was 156 ± 22 Δ %, the “x-fold (Emax)” value (ghrelin receptor [1]; [15]) was 1 x-fold and the “x-fold (EC50)” value (ghrelin receptor [1]; [16]) was 9.00 x-fold.
In the case of `CC(C)C[C@H](NC(=O)[C@H](CC(C)C)NC(=O)[C@@H](Cc1ccc(C(=O)c2ccccc2)cc1)NC(=O)[C@H](Cc1ccccc1)NC(=O)[C@@H](Cc1c[nH]c2ccccc12)NC(=O)[C@@H](N)CCCCN)C(N)=O` [Peptide 15, KwF-(D-Bpa)-LL-NH2], the “activity … (in words)” value (ghrelin receptor [1]) is reported as “no activity”.
With `CC(C)C[C@H](NC(=O)[C@H](CC(C)C)NC(=O)[C@@H](Cc1c[nH]c2ccccc12)NC(=O)[C@H](Cc1ccccc1)NC(=O)[C@@H](Cc1ccccc1)NC(=O)[C@@H](N)CCCCN)C(N)=O` [Peptide 9, K-(D-Phe)-FwLL-NH2] the “activity … (in words)” value (ghrelin receptor [1]) was “moderate activity”, the “Emax ± SEM” value (ghrelin receptor [1]; [4]) was 62 ± 4 Δ % and the EC50 (ghrelin receptor [1]; [5]) was 241 nM. For the same molecule, the “x-fold (Emax)” value (ghrelin receptor [1]; [6]) was 1.7 x-fold and the “x-fold (EC50)” value (ghrelin receptor [1]; [7]) was 5.28 x-fold.
In the case of `CC(C)C[C@H](NC(=O)[C@H](CC(C)C)NC(=O)[C@@H](Cc1csc2ccccc12)NC(=O)[C@H](Cc1ccccc1)NC(=O)[C@@H](Cc1cccc2ccccc12)NC(=O)[C@@H](N)CCCCN)C(N)=O` [Peptide 19, K-(D-1-Nal)-F-(D-Bth)-LL-NH2], the Emax (ghrelin receptor [1]; [8]) is reported as 40% and the “Emax ± SEM” value (ghrelin receptor [1]; inverse agonistic activity, analogs KxFxLL-NH2 (Table 4)) is reported as 40 ± 2 Δ %.
In the case of `CC(C)C[C@H](NC(=O)[C@H](CC(C)C)NC(=O)[C@@H](Cc1ccc(-c2ccccc2)cc1)NC(=O)[C@H](Cc1ccccc1)NC(=O)[C@@H](Cc1c[nH]c2ccccc12)NC(=O)[C@@H](N)CCCCN)C(N)=O` [Peptide 14, KwF-(D-Bip)-LL-NH2], the “activity … (in words)” value (ghrelin receptor [1]) is reported as “no activity”.
With `CC(C)C[C@H](NC(=O)[C@H](CC(C)C)NC(=O)[C@@H](Cc1c[nH]c2ccccc12)NC(=O)[C@H](Cc1ccccc1)NC(=O)[C@@H](Cc1ccc(C(=O)c2ccccc2)cc1)NC(=O)[C@@H](N)CCCCN)C(N)=O` [Peptide 7, K-(D-Bpa)-FwLL-NH2] the “activity … (in words)” value (ghrelin receptor [1]) was “moderate activity”, the “Emax ± SEM” value (ghrelin receptor [1]; [4]) was 67 ± 7 Δ % and the “x-fold (Emax)” value (ghrelin receptor [1]; [6]) was 1.8 x-fold. The “x-fold (EC50)” value (ghrelin receptor [1]; [7]) was 3.70 x-fold.
In the case of `CC(C)C[C@H](NC(=O)[C@H](CC(C)C)NC(=O)[C@@H](Cc1cccc2ccccc12)NC(=O)[C@H](Cc1ccccc1)NC(=O)[C@@H](Cc1cccc2ccccc12)NC(=O)[C@@H](N)CCCCN)C(N)=O` [Peptide 18, K-(D-1-Nal)-F-(D-1-Nal)-LL-NH2], the “activity … (in words)” value (ghrelin receptor [1]) is reported as “totally suppressed activity”.
For `CCC[C@H](NC(=O)[C@@H](Cc1cccc2ccccc12)NC(=O)[C@@H](N)CCCCN)C(=O)N[C@H](Cc1c[nH]c2ccccc12)C(=O)N[C@@H](CC(C)C)C(=O)N[C@@H](CC(C)C)C(N)=O` [Peptide 24, K-(D-1-Nal)-(L-Nva)-wLL-NH2] (H-K[d1Nal][Nva][dW]LL-NH2), the “Emax ± SEM” value (ghrelin receptor [1]; [9]) was 71 ± 4 Δ %, the “x-fold (Emax)” value (ghrelin receptor [1]; [10]) was 1.1 x-fold and the “x-fold (EC50)” value (ghrelin receptor [1]; [11]) was 146.5 x-fold.
In the case of `CC(C)C[C@H](NC(=O)[C@H](CC(C)C)NC(=O)[C@@H](Cc1cccc2ccccc12)NC(=O)[C@H](Cc1ccccc1)NC(=O)[C@@H](Cc1c[nH]c2ccccc12)NC(=O)[C@@H](N)CCCCN)C(N)=O` [Peptide 12, KwF-(D-1-Nal)-LL-NH2], the Emax (ghrelin receptor [1]; [12]) is reported as 54%, the EC50 (ghrelin receptor [1]; [13]) is reported as 17.9 nM and the “Emax ± SEM” value (ghrelin receptor [1]; [14]) is reported as 54 ± 10 Δ %. For the same molecule, the “x-fold (Emax)” value (ghrelin receptor [1]; [15]) was 0.3 x-fold and the “x-fold (EC50)” value (ghrelin receptor [1]; [16]) was 12.8 x-fold.

From patent publication US9718861B2 (Universitaet Leipzig, priority 2011, dated 2017)
